Data reported in patent EP0108627A2, “Cephalosporin derivatives and process for producing the same” (SUMITOMO CHEMICAL COMPANY, LIMITED, priority 1982, dated 1984).

Experiment: Acute toxicity on mice
Details: mouse, in vivo, po; ICR-slc male mice, 4 weeks old
Method: The compounds of Examples 4, 20 and 42 were tested for acute toxicity on mice^*.

Row | Compound | LD50
1 | CON=C(C(=O)NC1C(=O)N2C(C(=O)OCC(C)=Cc3ccccc3)=CCS[C@H]12)c1csc(N)n1 (stereo partly drawn) [Example 4, 2-Methyl-3-phenyl-2-propenyl 7-[2-(2-amino-4-thiazolyl)-2-methoxyiminoacetamido]-3-cephem-4-carboxylate] | > 5000 mg/kg
2 | CON=C(C(=O)NC1C(=O)N2C(C(=O)OCC=C(C)C)=CCS[C@H]12)c1csc(N)n1 (stereo partly drawn) [Example 20, 3-Methyl-2-butenyl 7-[2-(2-amino-4-thiazolyl)-2-methoxyiminoacetamido]-3-cephem-4-carboxylate] | > 5000 mg/kg
3 | CC=C(C)COC(=O)C1=CCS[C@@H]2C(NC(=O)C(=NOC)c3csc(N)n3)C(=O)N12 (stereo partly drawn) [Example 42, 2-Methyl-2-butenyl 7-[2-(2-amino-4-thiazolyl)-2-methoxyiminoacetamido]-3-cephem-4-carboxylate] | > 5000 mg/kg
